PMC7083851, “Extended pharmacodynamic responses observed upon PROTAC-mediated degradation of RIPK2” (Communications Biology, 2020)
Several values for one entry are separate records, joined by “and”; a condition that tells them apart may be missing. Equal entries are not always repeated.

Tests used:
RIPK2 [1] = target: T1, RIPK2 (Homo sapiens, UniProt O43353); experiment: RIPK2 degradation in THP-1 cells, capillary-based immunoassay, 18 h; format: cell-based; set-up: endogenous in cells; host or cells: THP-1 (ATCC TIB-202); conditions: for RIPK2 level relative to DMSO control, mean / RIPK2 level relative to DMSO control, replicate: THP-1, 18 h; for pDC50 (log half-maximal degradation concentration) of RIPK2: THP-1 cells, 18 h, n = 3
Description: The compounds were incubated with THP-1 cells for 18 h after which RIPK2 levels were determined using a capillary-based immunoassay (n = 3). All three PROTACs potently degraded RIPK2 in a concentration dependent manner (Fig. 1). […]. This discrepancy between the in vitro RIPK2 degradation and binding potency provides possible evidence for a catalytic mechanism of action of this compound.
(§1) Before treatment with compound or vehicle, THP1 cells, human and rat PBMCs were counted using Vi-Cell cell counter (Invitrogen) and adjusted to a final cell density of […] using complete growth medium. Cells or whole blood were treated with vehicle (0.1% DMSO) or fixed concentrations of compound up to 1 μM in half log unit increments and incubated for the time period indicated in the figure.
(§2) Simple Western immunoassay: Cell lysates were mixed with 5× concentrated master mix (Protein Simple) and denatured at 95 °C on a heat block for 5 min together with the provided ladder (Protein Simple). Antibodies were diluted in the provided buffer as following: anti-RIPK2 (1:10 or 1:50), anti-cIAP1(1:10), anti-cIAP2 (1:10), anti-XIAP (1:10), mouse anti-β-actin (Abcam - 1:1000), rabbit anti-β-actin (Abcam - 1:50) and anti-vinculin (1:100). All reagents (blocking buffer, primary and secondary antibodies, streptavadin, luminol/peroxide, separation matrix, stacking matrix and water) were added to the Protein Simple plate containing the ladder and lysates and the plate was placed in a Protein Simple Western instrument and the Simple Western default size assay protocol was used. All samples were analyzed using the associated Compass software 3.1.7. The area under the peak values obtained for RIPK2, cIAP1, cIAP2 or XIAP were normalized relative to the control protein values.
(§3) In vitro experimental data were analyzed using a 4-parameter logistic equation in GraphPad Prism 5.0.4. to generate an estimate of the half-maximal concentration and maximal degradation, DC50 and Dmax value respectively, for concentration-degradation relationships. Cytokine levels were analyzed in a similar manner to yield IC50 and Imax values. […] Where analysis to a sigmoidal relationship was not possible, the data points are shown as mean ± s.e.m.

RIPK2 [2] = target: T1, RIPK2; experiment: RIPK2 degradation in human PBMCs (immunoassay); format: cell-based; set-up: endogenous in cells; host or cells: primary human PBMCs from leukodepletion filters (NHSBT)
Description: (§4) PBMCs were isolated from leukodepletion filter from platelet aphaeresis supplied by National Health System Blood and Transplant—NHSBT Apheresed at NHBST.
as §1
(§5) Where the assessment of cytokines was performed, L18-MDP was added to the cell culture media (1 μg/ml) or to the rat blood samples (100 ng/ml) and samples were incubated for up to 4 h. […] Samples were them spun down at 1000 g and the cell culture supernatant, plasma or serum were collected for cytokines assessment, while cell pellets were used for RIPK2 and/or cIAP1, cIAP2, and XIAP levels analysis via immunoblotting.
as §2, with “All samples were analyzed using the associated Compass software 3.1.7.” left out
as §3

[3] = system: L18-MDP-induced TNFα release; experiment: L18-MDP-induced cytokine release (TNFα, IL1β, IL-6, IL-8, IL-10) in human PBMCs; format: cell-based; conditions: human PBMCs
Description: as §4, §1, §5
(§6) Cytokine measurement assay: Cytokine levels were measured in rat plasma or rat PBMCs cell culture supernatants using rat V-Plex TNFα, in human plasma or human PBMCs cell culture supernatants with either TNFα tissue culture or 7-plex kit. Rat serum and tissues samples from the in vivo L18-MDP acute inflammation model were analyzed using the rat TNFα, Il-6 and IL-8 U-Plex kits. All kits provided by Meso Scale Discovery (MSD). Levels of cytokines spontaneously released from human colon biopsies cell culture supernatants were measured using Human IL-1 beta/IL-1F2 DuoSet ELISA (Bio-techne), Human IL-6 ELISA (Immunotools) and Human TNF-alpha DuoSet ELISA (Bio-techne). All samples were processed accordingly to the manufacturer’s instructions. The MSD plates were analyzed using the MSD sector imager 6000 plate reader and cytokines concentration (pg/ml) was obtained by using the MSD DISCOVERY WORKBENCH software version 4.0.12.1
as §3

RIPK2 [4] = target: T1, RIPK2; experiment: RIPK2 fluorescence polarisation binding assay
[5] = system: spontaneous IL-1β, IL-6, and TNFα release; experiment: Spontaneous cytokine release (IL-1β, IL-6, TNFα) from Crohn's disease patient intestinal biopsies; format: cell-based, human; conditions: prednisolone 1uM; individual biopsies; fig 4e
Description: (§7) Colonic biopsies or tissues were obtained during endoscopy or via surgical resection from Crohn’s Disease (CD) or Ulcerative Colitis (UC) patients (St Bartholomew’s Hospital, London). All patients gave informed written consent. For surgical specimens, the mucosa was dissected away from the submucosa and cut into pieces of ~10–20 mg. […] The supernatants were collected for cytokine measurement as detailed in cytokines assay section while tissues were used to determine RIPK2 levels.
as §6

[6] = system: spontaneous IL-1β, IL-6, and TNFα release; experiment: Spontaneous cytokine release (IL-1β, IL-6, TNFα) from ulcerative colitis patient intestinal biopsies; format: cell-based, human; conditions: prednisolone 1uM; individual biopsies; fig 4f
Description: as §7, §6

T1 sequence (O43353 whole entry): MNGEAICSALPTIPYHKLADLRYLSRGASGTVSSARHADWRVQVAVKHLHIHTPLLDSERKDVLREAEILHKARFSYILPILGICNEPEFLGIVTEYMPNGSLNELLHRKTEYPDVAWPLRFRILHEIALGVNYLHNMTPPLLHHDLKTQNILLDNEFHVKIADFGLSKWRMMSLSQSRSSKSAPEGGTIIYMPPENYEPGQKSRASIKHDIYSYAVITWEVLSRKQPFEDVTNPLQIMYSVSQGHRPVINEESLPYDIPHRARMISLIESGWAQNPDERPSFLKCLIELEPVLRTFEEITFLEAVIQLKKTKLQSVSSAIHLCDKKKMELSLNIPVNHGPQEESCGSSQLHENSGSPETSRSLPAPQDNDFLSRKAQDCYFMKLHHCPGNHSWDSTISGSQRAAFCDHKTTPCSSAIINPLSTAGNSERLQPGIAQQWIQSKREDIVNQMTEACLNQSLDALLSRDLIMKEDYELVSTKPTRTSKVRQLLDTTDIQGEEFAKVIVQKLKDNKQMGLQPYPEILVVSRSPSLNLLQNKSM

Structure (SMILES) | RIPK2 level relative to DMSO control, mean (RIPK2 [1]; concentration 5.64503e-11 (uM)) [%] | RIPK2 level relative to DMSO control, replicate (RIPK2 [1]; concentration 5.64503e-11 (uM)) | RIPK2 level relative to DMSO control, mean (RIPK2 [1]; concentration 1.69351e-10 (uM)) [%] | RIPK2 level relative to DMSO control, replicate (RIPK2 [1]; concentration 1.69351e-10 (uM)) | RIPK2 level relative to DMSO control, mean (RIPK2 [1]; concentration 5.08053e-10 (uM)) [%] | RIPK2 level relative to DMSO control, replicate (RIPK2 [1]; concentration 5.08053e-10 (uM)) | RIPK2 level relative to DMSO control, mean (RIPK2 [1]; concentration 1.52416e-9 (uM)) [%] | RIPK2 level relative to DMSO control, replicate (RIPK2 [1]; concentration 1.52416e-9 (uM)) | RIPK2 level relative to DMSO control, mean (RIPK2 [1]; concentration 4.57247e-9 (uM)) [%] | RIPK2 level relative to DMSO control, replicate (RIPK2 [1]; concentration 4.57247e-9 (uM)) | RIPK2 level relative to DMSO control, mean (RIPK2 [1]; concentration 1.37174e-8 (uM)) [%] | RIPK2 level relative to DMSO control, replicate (RIPK2 [1]; concentration 1.37174e-8 (uM)) | RIPK2 level relative to DMSO control, mean (RIPK2 [1]; concentration 4.11523e-8 (uM)) [%] | RIPK2 level relative to DMSO control, replicate (RIPK2 [1]; concentration 4.11523e-8 (uM)) | RIPK2 level relative to DMSO control, mean (RIPK2 [1]; concentration 1.23457e-7 (uM)) [%] | RIPK2 level relative to DMSO control, replicate (RIPK2 [1]; concentration 1.23457e-7 (uM)) | RIPK2 level relative to DMSO control, mean (RIPK2 [1]; concentration 3.7037e-7 (uM)) [%] | RIPK2 level relative to DMSO control, replicate (RIPK2 [1]; concentration 3.7037e-7 (uM)) | RIPK2 level relative to DMSO control, mean (RIPK2 [1]; concentration 1.11111e-6 (uM)) [%] | RIPK2 level relative to DMSO control, replicate (RIPK2 [1]; concentration 1.11111e-6 (uM)) | further results
CC(C)(C)S(=O)(=O)c1cc2c(Nc3ccc4scnc4c3)ccnc2cc1OCCOCCOCCOCCOCC(=O)Nc1cccc2c1CN([C@H]1CCC(=O)NC1=O)C2=O [PROTAC 3] | 146.59 | 194.68% and 98.50% | 122.55 | 71.16% and 101.63% and 194.85% | 97.79 | 93.88% and 82.74% and 116.75% | 112.46 | 101.29% and 70.25% and 165.85% | 60.56 | 92.51% and 28.00% and 61.18% | 42.80 | 81.76% and 12.71% and 33.93% | 29.73 | 51.94% and 1.28% and 35.96% | 21.93 | 35.50% and 5.30% and 24.99% | 20.89 | 34.52% and 2.06% and 26.09% | 14.85 | 24.75% and 3.56% and 16.23% | RIPK2 level relative to DMSO control, mean (RIPK2 [1]; concentration 3.33333e-6 (uM)): 15.39%; RIPK2 level relative to DMSO control, replicate (RIPK2 [1]; concentration 3.33333e-6 (uM)): 20.92% and 6.74% and 18.51%; RIPK2 level relative to DMSO control, mean (RIPK2 [1]; concentration 1e-5 (uM)): 22.12%; RIPK2 level relative to DMSO control, replicate (RIPK2 [1]; concentration 1e-5 (uM)): 28.44% and 5.50% and 32.40%; pDC50 (log half-maximal degradation concentration) of RIPK2 (RIPK2 [1]): 8.6 ± 0.4
CN[C@H](C)C(=O)N[C@@H](C(=O)N1CCC[C@@H]1c1nc(C(=O)c2ccc(F)cc2)cs1)C1CCN(C(=O)c2cnc(N3CCN(CCOc4cc5ncnc(Nc6n[nH]c(C)c6C)c5cc4S(=O)(=O)C(C)(C)C)CC3)nc2)CC1 [PROTAC 5] | – | – | – | – | – | – | – | – | – | – | – | – | – | – | – | – | – | – | – | – | RIPK2 degradation in human PBMCs, in words (RIPK2 [2]): does not degrade RIPK2; hPBMC pDC50 ± SEM, 24 h (n = 3) (RIPK2 [2]; RIPK2 degradation, 24 h): Non-degrader; hPBMC MDP pIC50 ± SEM, 6 h (n = 3) ([3]; L18-MDP-induced TNFα release, 6 h): 6.5 ± 0.5; fold reduced potency in L18-MDP-induced TNFα release versus the active PROTAC ([3]; control PROTAC vs its enantiomer): more than 10 fold; RIPK2 FP pIC50 ± SEM (n) (RIPK2 [4]): 6.7 ± 0.05 (12)
Cc1ncsc1-c1ccc(CNC(=O)[C@@H]2C[C@@H](O)CN2C(=O)[C@@H](NC(=O)COCCOCCOCCOCCOc2cc3nccc(Nc4ccc5scnc5c4)c3cc2S(=O)(=O)C(C)(C)C)C(C)(C)C)cc1 [PROTAC 1] | 137.19 | 137.14% and 131.67% and 142.75% | 152.51 | 155.57% and 149.03% and 152.92% | 122.01 | 106.27% and 143.87% and 115.89% | 89.18 | 63.87% and 96.25% and 107.40% | 27.32 | 23.09% and 35.58% and 23.29% | 9.76 | 12.67% and 5.77% and 10.83% | 6.61 | 11.20% and 7.66% and 0.96% | 5.05 | 9.24% and 2.76% and 3.15% | 6.31 | 7.12% and 6.30% and 5.51% | 33.78 | 1.60% and 12.61% and 87.13% | RIPK2 level relative to DMSO control, mean (RIPK2 [1]; concentration 3.33333e-6 (uM)): 14.14%; RIPK2 level relative to DMSO control, replicate (RIPK2 [1]; concentration 3.33333e-6 (uM)): 1.88% and 3.30% and 37.22%; RIPK2 level relative to DMSO control, mean (RIPK2 [1]; concentration 1e-5 (uM)): 11.28%; RIPK2 level relative to DMSO control, replicate (RIPK2 [1]; concentration 1e-5 (uM)): 13.04% and 4.22% and 16.59%; pDC50 (log half-maximal degradation concentration) of RIPK2 (RIPK2 [1]): 8.7 ± 0.1
C[C@]12C=CC(=O)C=C1CC[C@@H]1[C@@H]2[C@@H](O)C[C@@]2(C)[C@H]1CC[C@]2(O)C(=O)CO [prednisolone, reference compound] | – | – | – | – | – | – | – | – | – | – | – | – | – | – | – | – | – | – | – | – | IL-1b (Ctrl=DMSO = 100) [5]: 18 and 20 and 82 and 15 and 48 and 13 and 5 (2×) and 35 and 37 and 12 and 6 and 49 and 17; IL-6 (Ctrl=DMSO = 100) [5]: 26 (2×) and 27 and 10 and 1 and 8 and 46 and 63 and 31 and 7 and 42 and 40 and 90 and 50 and 9; TNFa (Ctrl=DMSO = 100) [5]: 29 and 15 and 42 and 28 and 19 and 0 and 13 and 33 and 46 (2×) and 27 and 26 and 38 and 23 and 66; IL-1b (Ctrl=DMSO = 100) [6]: 65 and 41 and 10 and 46 and 7 (2×) and 49 and 30 and 14 and 33 and 36 and 5 and 17 and 39 and 19 (2×) and 13 and 34 and 28; IL-6 (Ctrl=DMSO = 100) [6]: 58 and 14 and 16 and 25 and 18 and 9 and 12 and 5 (2×) and 74 and 26 and 34 and 28 and 19 and 3 and 21 and 17 and 48 and 24; TNFa (Ctrl=DMSO = 100) [6]: 36 and 19 and 40 and 48 and 18 (2×) and 56 and 8 and 33 and 55 and 69 and 27 and 38 (2×) and 20 and 25 and 35 and 14 and 39
